Results on nine compounds are retold here after ChEMBL document CHEMBL1201862, “PubChem BioAssay data set” (2004).

Among the test systems are A498; HCT-15; HT-29; KM12; LOX IMVI; MDA-MB-231; MOLT-4; Malme-3M; OVCAR-3; OVCAR-8; RPMI-8226; SF-295; SK-MEL-28; SK-MEL-2; SN12C; SNB-19; SNB-75; SW-620; TK-10; UACC-62.
What all share (experiment): inhibition of tumour cell growth, NCI panel, 48 h

The structures appear in SMILES notation. Where a name gives a salt, the structure may show the parent alone.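 Dose response: 5 concentrations. Exposure: 48 h. Format: 96-well plates. Endpoint: linear interpolation; highest concentration if not reached. GI50 is the concentration that inhibits growth by half.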 Activity calls are given as the source filed them. No stated cut-off is given here; in the data, active = GI50 up to about 1.1 µM and inactive = higher.

For `COc1ccc(/C=C2/CSCC3=C2N=C(S)NC3c2ccc(OC)c(OC)c2OC)c(OC)c1OC` (stereo not given), the GI50 with A498 is 19 µM (inactive); in the assay on HCT-15, 25.7 µM; in the assay with HT-29 it was 12.6 µM (inactive); in the assay with KM12 it was 12.1 µM (inactive); in the assay on LOX IMVI it was 15.4 µM (inactive); in the assay with MDA-MB-231 it was 17.7 µM (inactive). Also, the GI50 in the assay with MOLT-4 is 3.05 µM (inactive); with Malme-3M, 23.2 µM (inactive); in the assay with OVCAR-3, 43.7 µM (inactive); with OVCAR-8 it was 7.52 µM (inactive); with RPMI-8226, 3.7 µM (inactive); with SF-295, 32.6 µM (inactive). Also, the GI50 in the assay with SK-MEL-28 was 18.4 µM (inactive); in the assay with SK-MEL-2, 22.8 µM (inactive); in the assay with SN12C, 17 µM (inactive); in the assay on SNB-19 it was 20.1 µM (inactive); with SNB-75 it was 0.209 µM (active); with SW-620 it was 27.7 µM (inactive). Besides, the figures for the GI50 with TK-10 and in the assay with UACC-62 were 26.2 µM (inactive) and 16.8 µM (inactive), respectively.
For the compound `COc1c(/C=C/C=O)cc2c(c1OC)OCO2`, the GI50 with A498 is 1.21 µM (inactive); in the assay with HCT-15, 15.3 µM; in the assay with HT-29, 24.2 µM (inactive); in the assay with KM12, 12 µM (inactive); in the assay on LOX IMVI, 24.5 µM (inactive); in the assay with MDA-MB-231 it was 31.6 µM (inactive). For the same compound, the GI50 in the assay with MOLT-4 is 20.5 µM (inactive); in the assay with Malme-3M, 20.7 µM (inactive); in the assay with OVCAR-3, 33.2 µM (inactive); in the assay with OVCAR-8 it was 33.6 µM (inactive); in the assay on RPMI-8226 it was 14.3 µM (inactive); with SF-295 it was 21.2 µM (inactive). For the same compound, the GI50 in the assay on SK-MEL-28 was > 100 µM (inactive); in the assay with SK-MEL-2 it was 23.4 µM (inactive); in the assay with SN12C, 24.2 µM (inactive); in the assay on SNB-19, 16.4 µM (inactive); in the assay on SNB-75 it was > 100 µM (inactive); in the assay with SW-620 it was 51.2 µM (inactive). Also, the GI50 with TK-10 was 40.4 µM (inactive); with UACC-62 it was 19.3 µM (inactive).
For `O=C(NNC(=O)c1ccncc1)c1ccncc1`, the GI50 in the assay on A498 is > 100 µM (inactive); in the assay with HCT-15, greater than 100 µM; with HT-29, > 100 µM (inactive); in the assay on KM12, > 100 µM (inactive); in the assay with LOX IMVI, > 100 µM (inactive); with MDA-MB-231, > 100 µM (inactive). In addition, the GI50 in the assay on MOLT-4, in the assay on Malme-3M, in the assay on OVCAR-3, with OVCAR-8, in the assay on RPMI-8226 and in the assay on SF-295 was > 100 µM (inactive) in each case. Also, the GI50 with SK-MEL-28, in the assay with SK-MEL-2, in the assay on SN12C, with SNB-19, in the assay with SNB-75 and in the assay on SW-620 was > 100 µM (inactive) each time. The GI50 in the assay on TK-10 and in the assay on UACC-62 was > 100 µM (inactive) each time.
Regarding `Cc1ccc(S(=O)(=O)NC(CO)C(=O)O)cc1` (stereo not given), the GI50 was > 100 µM (inactive) in the assay on A498; greater than 100 µM in the assay on HCT-15; > 100 µM (inactive) in the assay with HT-29; > 100 µM (inactive) with KM12; > 100 µM (inactive) with LOX IMVI; > 100 µM (inactive) in the assay on MDA-MB-231. Also, the GI50 with MOLT-4, in the assay on Malme-3M, with OVCAR-3, with OVCAR-8, with RPMI-8226 and in the assay on SF-295 was > 100 µM (inactive) in each case. The GI50 with SK-MEL-28, in the assay with SK-MEL-2, in the assay on SN12C, with SNB-19, with SNB-75 and in the assay on SW-620 was > 100 µM (inactive) each time. The GI50 in the assay on TK-10 and in the assay with UACC-62 was > 100 µM (inactive) in each case.
As for `O=C(CSCC(=O)N/N=C/c1ccncc1)N/N=C/c1ccncc1`, the GI50 in the assay with A498 is > 100 µM (inactive); in the assay on HCT-15, greater than 100 µM; in the assay on HT-29, > 100 µM (inactive); with KM12, > 100 µM (inactive); in the assay with LOX IMVI it was > 100 µM (inactive); in the assay on MDA-MB-231 it was > 100 µM (inactive). The GI50 with MOLT-4, with Malme-3M, in the assay on OVCAR-3, in the assay on OVCAR-8, in the assay with RPMI-8226 and in the assay with SF-295 was > 100 µM (inactive) in each case. Further, the GI50 in the assay on SK-MEL-28, in the assay with SK-MEL-2, in the assay with SN12C, with SNB-19, with SNB-75 and in the assay with SW-620 was > 100 µM (inactive) throughout. Besides, the GI50 with TK-10 and with UACC-62 was > 100 µM (inactive) each time.
`CO/C(=C/C(=O)C(Cl)(Cl)Cl)CC/C(=C\C(=O)C(Cl)(Cl)Cl)OC`: the GI50 is 35.3 µM (inactive) in the assay on A498; 22.5 µM in the assay with HCT-15; 25 µM (inactive) in the assay on HT-29; 27.7 µM (inactive) with KM12; 19.6 µM (inactive) in the assay with LOX IMVI; 42.2 µM (inactive) in the assay on MDA-MB-231. In addition, the GI50 with MOLT-4 is 21.4 µM (inactive); in the assay with Malme-3M, 23 µM (inactive); in the assay on OVCAR-3, 26.8 µM (inactive); with OVCAR-8 it was 21.9 µM (inactive); in the assay on RPMI-8226, 22.3 µM (inactive); with SF-295, 36.3 µM (inactive). The GI50 in the assay on SK-MEL-28 was 30.1 µM (inactive); with SK-MEL-2, 32.4 µM (inactive); with SN12C, 23.2 µM (inactive); in the assay with SNB-19, 45.8 µM (inactive); in the assay on SNB-75, 40.6 µM (inactive); with SW-620 it was 53 µM (inactive). Further, the values for the GI50 with TK-10 and with UACC-62 were 30.8 µM (inactive) and 22 µM (inactive), respectively.
Regarding `O=C(/C=C/c1ccc(-c2ccccc2)cc1)NCc1ccc(C(=O)NCCc2c[nH]c3ccccc23)cc1`, the GI50 was 32.8 µM (inactive) in the assay with A498; greater than 100 µM in the assay on HCT-15; 11.5 µM (inactive) with HT-29; 31 µM (inactive) in the assay with KM12; 48.9 µM (inactive) in the assay with LOX IMVI; 14.6 µM (inactive) in the assay with MDA-MB-231. In addition, the GI50 with MOLT-4 is 16.6 µM (inactive); in the assay on Malme-3M, 33.4 µM (inactive); in the assay with OVCAR-3, 28.9 µM (inactive); in the assay with OVCAR-8 it was 13.6 µM (inactive); with RPMI-8226, 60.8 µM (inactive); with SF-295 it was 11.1 µM (inactive). The GI50 in the assay with SK-MEL-28 was 39.7 µM (inactive); in the assay with SK-MEL-2, 33.5 µM (inactive); in the assay with SN12C, 5.08 µM (inactive); with SNB-19 it was 21.7 µM (inactive); with SNB-75 it was 11.2 µM (inactive); in the assay with SW-620, 34 µM (inactive). The values for the GI50 in the assay on TK-10 and with UACC-62 were 26.2 µM (inactive) and 29 µM (inactive), respectively.
As for `CNNCc1ccc(C(=O)NC(C)C)cc1` [PROCARBAZINE HYDROCHLORIDE], the GI50 in the assay with A498 is > 500 µM (inactive); with HCT-15 it was greater than 415 µM; in the assay on HT-29 it was > 474 µM (inactive); in the assay on KM12, > 500 µM (inactive); in the assay with LOX IMVI, > 486 µM (inactive); with MDA-MB-231 it was > 500 µM (inactive). Further, the GI50 is 426 µM (inactive) in the assay with MOLT-4; > 457 µM (inactive) with Malme-3M; > 472 µM (inactive) with OVCAR-3; > 500 µM (inactive) with OVCAR-8; 465 µM (inactive) in the assay with RPMI-8226; > 500 µM (inactive) with SF-295. Also, the GI50 was > 500 µM (inactive) in the assay on SK-MEL-28; > 500 µM (inactive) in the assay on SK-MEL-2; > 500 µM (inactive) in the assay on SN12C; > 500 µM (inactive) with SNB-19; 435 µM (inactive) with SNB-75; > 500 µM (inactive) with SW-620. The GI50 in the assay with TK-10 is > 500 µM (inactive); in the assay on UACC-62 it was 366 µM (inactive).
In the case of `CC(=O)NNc1nc(C)c(C(/C=C/c2ccc([N+](=O)[O-])cc2)=N/NC(N)=O)s1`, the GI50 was > 100 µM (inactive) with A498; greater than 100 µM in the assay with HCT-15; > 100 µM (inactive) in the assay on HT-29; > 100 µM (inactive) with KM12; > 100 µM (inactive) with LOX IMVI; > 100 µM (inactive) in the assay with MDA-MB-231. Further, the GI50 in the assay on MOLT-4, in the assay on Malme-3M, in the assay with OVCAR-3, in the assay on OVCAR-8, in the assay with RPMI-8226 and with SF-295 was > 100 µM (inactive) throughout. Also, the GI50 with SK-MEL-28, in the assay with SK-MEL-2, with SN12C, in the assay with SNB-19, in the assay with SNB-75 and in the assay with SW-620 was > 100 µM (inactive) throughout. For the same compound, the GI50 in the assay on TK-10 and in the assay with UACC-62 was > 100 µM (inactive) each time.
